Assay results from publication PMC7129073 (Clinical Microbiology and Infection, 2015).
In brackets after ≈: the same amount, converted by molar mass.

Legend:
[1] = system: P. aeruginosa; experiment: Disk diffusion, urine isolates of BPH patients
[2] = system: nontyphoidal Salmonella; experiment: Agar dilution, isolates from chickens 1998–2004; type: cell-based, Salmonella spp.
[3] = system: Salmonella spp.; experiment: Agar dilution susceptibility, gastroenteritis isolates Cuba; type: cell-based; settings: 34 strains, 2002
[4] = system: H. influenzae (HI); experiment: SENTRY Brazil, NCCLS broth microdilution; type: cell-based, Haemophilus influenzae
[5] = system: Escherichia coli O157:H7; experiment: Kirby-Bauer susceptibility; type: cell-based; settings: 30 strains, 1990–2003
[6] = system: S. pneumoniae (SPN); experiment: SENTRY Brazil, NCCLS broth microdilution; type: cell-based, Streptococcus pneumoniae
[7] = system: Acinetobacter; experiment: Disk diffusion; type: cell-based; settings: 37 isolates selected as resistant to beta-lactams
[8] = system: MSSA; experiment: Agar dilution MIC; type: cell-based, Staphylococcus aureus; settings: for MIC50 / MIC90: Staphylococcus aureus, MSSA; for MIC range: n = 200
[9] = system: biofilms of S. aureus (SA204 and SA195) and S. epidermidis (ATCC35983 and ATCC35984); experiment: Antibiotic lock, in vitro biofilm on polyurethane film, viable counts; type: cell-based, Staphylococcus species; settings: any of the time intervals examined
[10] = system: Shigella spp.; experiment: Disk diffusion, stool isolates Tehran; type: cell-based; settings: 96 isolates
[11] = system: viridans group streptococci (VGS); experiment: MIC; type: cell-based
[12] = system: methicillin resistant Staphylococcus aureus; experiment: NCCLS agar dilution MIC; type: cell-based; settings: Staphylococcus aureus
[13] = system: methicillin susceptible Staphylococcus aureus; experiment: NCCLS agar dilution MIC; type: cell-based
[14] = system: Streptococcus agalactiae strains P0162 and P0425; experiment: Microdilution; type: cell-based
[15] = system: Nocardia spp.; experiment: Time-kill at peak-serum concentrations, seven strains; type: cell-based; settings: of seven strains; 24, 72 h
[16] = system: MRSA; experiment: Agar dilution MIC; type: cell-based, Staphylococcus aureus
[17] = system: S. pneumoniae (SPN); experiment: NCCLS broth microdilution, fluoroquinolones 1999–2004; type: cell-based, Streptococcus pneumoniae; settings: Streptococcus pneumoniae, read-out: MIC90 during the six years, 1999–2004
[18] = Phase 3 trial, complicated intra-abdominal infections; type: in vivo, human
[19] = system: CA-MRSA; experiment: MIC, MBC; type: cell-based, Staphylococcus aureus; settings: time kill, two strains
[20] = system: MDR-MRSA; experiment: MIC, MBC; type: cell-based, Staphylococcus aureus; settings: time kill, two strains
[21] = system: Pseudomonas aeruginosa; experiment: MIC, strains from cystic fibrosis patients; settings: by MIC
[22] = system: E. coli (Ec); experiment: E-test, recurrent UTI isolates of children; type: cell-based, Escherichia coli
[23] = system: Salmonella serotype Typhimurium; experiment: Disk diffusion, food isolates Spain; type: cell-based; settings: n = 53
[24] = system: Salmonella, other 49 serotypes; experiment: Disk diffusion, food isolates Spain; type: cell-based; settings: n = 115
[25] = system: Salmonella serotype Enteritidis; experiment: Disk diffusion, food isolates Spain; type: cell-based; settings: n = 96
[26] = system: N.gonorrhoeae; experiment: microbe, parasite or virus in culture; type: cell-based; settings: Neisseria gonorrhoeae
[27] = system: Pseudomonas spp.; experiment: MIC; type: cell-based

CC1(C)S[C@@H]2[C@H](NC(=O)[C@H](NC(=O)N3CCNC3=O)c3ccccc3)C(=O)N2[C@H]1C(=O)O [azlocillin]
resistance [1]: 73.3%

O=C(N[C@H](CO)[C@H](O)c1ccc([N+](=O)[O-])cc1)C(Cl)Cl [chloramphenicol]
resistance ([2]; Belgian collection (caecal samples; Belgium, France, Netherlands)): 8%
resistance ([2]; Germany (carcass meat)): 4%
resistance [3]: 41%
% S [4]; 1998: 96%
% S [4]; 1999: 99%
% S [4]; 2000: 97%
% S [4]; 2001: 95%
% S [4]; 2002: 93%
% S [4]; 2003: 96%
resistant strains [5]: 6%
% S [6]; 1998: 99%
% S [6]; 1999: 98%
% S [6]; 2000: 99%
% S [6]; 2001: 100%
% S [6]; 2002: 99%
% S [6]; 2003: 100%
resistant isolates [7]: 100.0%

Cc1nnc(SCC2=C(C(=O)O)N3C(=O)[C@@H](NC(=O)Cn4cnnn4)[C@H]3SC2)s1 [cefazolin]
MIC50 [8]: < 0.5 µg/mL
MIC90 [8]: < 1 µg/mL
MIC range [8]: 250 to 1000 µg/mL
significant biofilm killing [9]: not achieved
sensitive [10]: 80%

COc1c(N2C[C@@H]3CCCN[C@@H]3C2)c(F)cc2c(=O)c(C(=O)O)cn(C3CC3)c12 [moxifloxacin]
MIC50 [8]: < 0.025 µg/mL
MIC90 [8]: < 0.0625 µg/mL
MIC range [8]: 25 to 2000 µg/mL
MIC50 [11]: 0.12 µg/mL (≈ 0.299 µM)
MIC90 [11]: 0.25 µg/mL (≈ 0.623 µM)
MIC50 [12]: 2 µg/mL (≈ 4.98 µM)
MIC90 [12]: 8 µg/mL (≈ 19.9 µM)
MIC50 ([13]; Staphylococcus aureus): 0.06 µg/mL (≈ 0.149 µM)
MIC90 ([13]; Staphylococcus aureus): 0.12 µg/mL (≈ 0.299 µM)
MIC range ([13]; n = 41): 0.03 to 8 µg/mL
MIC ([14]; strain P0162 (ParC Ser79Phe, GyrA Glu85Ala)): 0.5 µg/mL (≈ 1.25 µM)
MIC ([14]; strain P0425 (ParC Ser79Phe, GyrA Glu85Lys)): 2 µg/mL (≈ 4.98 µM)
strains with bactericidal activity (≥3 log10 cfu/ml decrease) [15]: 2 strains
MIC50 ([16]; Staphylococcus aureus, MRSA): < 4 µg/mL
MIC90 ([16]; Staphylococcus aureus, MRSA): < 4 µg/mL
MIC range ([16]; n = 50): 4 µg/mL (≈ 9.96 µM)
MIC90 [17]: 0.12 to 0.25 µg/mL (≈ 0.299 to 0.623 µM)

CN(C)c1cc(NC(=O)CNC(C)(C)C)c(O)c2c1C[C@H]1C[C@H]3[C@H](N(C)C)C(O)=C(C(N)=O)C(=O)[C@@]3(O)C(O)=C1C2=O [TGC, tigecycline]
clinical cure rate at TOC, ME group ([18]; TGC 100 mg then 50 mg q12h iv, IMI/CIS 500/500 mg q6h, 5–14 days): 80.6%
nausea ([18]; adverse events): 31.0%
vomiting ([18]; adverse events): 25.7%
clinical cure rate at TOC, m-mITT cohort ([18]; same regimens): 73.5%
Δ Log10 CFU/ml [19]: −2.37 Log10 CFU/ml
Δ Log10 CFU/ml [20]: −2.59 Log10 CFU/ml

colistin methanesulfonate
Susceptible isolates [21]: 98%

Cc1cc(NS(=O)(=O)c2ccc(N)cc2)no1 [Sulfa, sulfamethoxazol]
MIC of sensitive isolates carrying sulI and sulII ([22]; 3 isolates): 8 µg/mL
MIC of sensitive strains without the three genes ([22]; 6 strains): 12 to 32 µg/mL
resistant isolates ([22]; 20 out of 29): 65.5%

CN[C@@H]1[C@H](O)[C@H](NC)[C@H]2O[C@@]3(O)C(=O)C[C@@H](C)O[C@H]3O[C@@H]2[C@H]1O [spectinomycin]
resistance [3]: 50%
resistance rate (NCCLS M100-S13) [23]: 87%
resistance rate (NCCLS M100-S13) [24]: 100%
resistance rate (NCCLS M100-S13) [25]: 99%
MIC [26]: 16 µg/mL (≈ 48.1 µM)
MIC ([26]; strain 76mu6): 16 µg/mL (≈ 48.1 µM)
MIC ([26]; strain 76mu10): 8 µg/mL (≈ 24.1 µM)
MIC ([26]; strain 92mu6): 8 µg/mL (≈ 24.1 µM)
MIC ([26]; strain 92mu13): 4 µg/mL (≈ 12 µM)

CCN1CCN(C(=O)N[C@@H](C(=O)N[C@@H]2C(=O)N3[C@@H]2SC(C)(C)[C@@H]3C(=O)O)c2ccccc2)C(=O)C1=O [piperacillin]
resistance [1]: 73.3%
susceptible strains [27]: 84%
resistant isolates [7]: 100.0%
